# What was measured:
# [1] = system: B. xylophilus; assay: microbe, parasite or virus in culture; details: Bursaphelenchus xylophilus, 48 h, read-out: Corrected Mortality Rate ± SD (%) B. xylophilus
# Description: (§1) M. incognita (parasitic on tomato plants), A. besseyi (potato dextrose agar–Botrytis cinerea breeding), B. xylophilus (potato dextrose agar–Botrytis cinerea breeding), and C. elegans (nematode growth medium–inactivated Escherichia coli OP50 cultivation) were provided by the Fine Chemical Research and Development Center of Guizhou University (Guizhou, China). The methodology used for the nematocidal bioassays of these target compounds was modified in the light of the conventional methods reported in the previously published literature. The nematicidal activity of the target compounds against four nematodes was determined using 48-well biochemical culture dishes. All of the compounds were dissolved with 100 μL DMF and were diluted with 1% Tween-80 to obtain 200 and 50 μg/mL concentrations for the bioassays. Fosthiazate and tioxazafen were used as positive controls at the same concentrations, and a negative control group was prepared without compounds using the same methodology. An amount of 10 µL of nematode suspension (about 50 nematodes) and 300 µL of the trial solution were added to corresponding hole, and each treatment was set to three repetitions. All of the 48-well plates were placed in a biochemical incubator at 27 °C for dark light culture. […] Corrected mortality (%) = [(mortality of treatment % − mortality of negative control %)/(1 − mortality of negative control %)] × 100%(3)
# [2] = system: C. elegans; assay: microbe, parasite or virus in culture; details: 48 h; for mortality at 50 µg/mL / mortality at 200 µg/mL: Caenorhabditis elegans, read-out: Corrected Mortality Rate ± SD (%) C. elegans
# Description: as §1
# [3] = system: M. incognita; assay: microbe, parasite or virus in culture; details: Meloidogyne incognita, 48 h, read-out: Corrected Mortality Rate ± SD (%) M. incognita
# Description: as §1
# [4] = system: A. besseyi; assay: microbe, parasite or virus in culture; details: Aphelenchoides besseyi, 48 h, read-out: Corrected Mortality Rate ± SD (%) A. besseyi
# Description: as §1
# [5] = system: S. sclerotiorum; assay: In vitro mycelium growth inhibition test; format: cell-based; details: Sclerotinia sclerotiorum; 50 μg/mL; mycelial growth; mean ± SD of three replicates; read-out: Inhibition Rate (%) S. sclerotiorum
# Experimental: (§2) B. cinerea and S. scleotiorum were kindly provided by the Department of Pesticides, College of Plant Protection, Nanjing Agricultural University (Nanjing, China). All compounds were evaluated for mycelium growth inhibition tests against the two plant pathogenic fungi mentioned in previous reports. These two fungi were inoculated on potato dextrose agar (PDA) plates and were grown in biochemical incubators at 25 ± 1 °C for 2–4 days. The new mycelium was used to determine the antifungal activity. The target compounds were dissolved in 100 µL DMF, and they were then added into the PDA media to make the concentration 50 µg/mL. Mycelia dishes of about 5 mm in diameter were cut from the culture medium. Mycelium were picked up with a sterile inoculation needle, and the sample was inoculated in the middle of a PDA plate in a sterile environment. Afterwards, a preliminary screening of fungal activity was performed. […] Each test was carried out three times. The radial growth of the fungal colonies was gauged and recorded when the diameters of the blank control mycelia reached 5.0–5.5 cm. […] The final data were analyzed using SPSS v.25.0 (IBM, New York, NY, USA). The following formula was used to calculate the fungi inhibition rate. Inhibition rate (%) = [(Mycelium diameter of negative control − Mycelium diameter of treatment)/(Mycelium diameter of negative control − 0.5)] × 100%(1)
# [6] = system: B. cinerea; assay: In vitro mycelium growth inhibition test; format: cell-based; details: Botrytis cinerea; 50 μg/mL; mycelial growth; mean ± SD of three replicates; read-out: Inhibition Rate (%) B. cinerea
# Experimental: as §2
Compound,mortality at 50 µg/mL [1] [%],mortality at 200 µg/mL [1] [%],mortality at 50 µg/mL [2] [%],mortality at 200 µg/mL [2] [%],mortality at 50 µg/mL [3] [%],mortality at 200 µg/mL [3] [%],mortality at 50 µg/mL [4] [%],mortality at 200 µg/mL [4] [%],inhibition at 50 µg/mL [5] [%],inhibition at 50 µg/mL [6] [%],Corrected Mortality Rate ± SD (%) C. elegans ([2]; 50 µg/mL) [%],Corrected Mortality Rate ± SD (%) C. elegans ([2]; 200 µg/mL) [%]
O=C(Nc1ccc(Cl)cc1Cl)c1nc(-c2ccc(Br)nc2)no1 [Compound F20],0,41.2 ± 1.3,81.4 ± 1.5,100,8.6 ± 2.2,41.2 ± 1.3,0,26.4 ± 2.5,13.8 ± 0.5,55.8 ± 0.1,–,–
"Cc1ccc(-c2noc(C(=O)NCCc3ccccn3)n2)cc1 [Compound F5, N -(2-(pyridin-2-yl)ethyl)-3-(p-tolyl)-1,2,4-oxadiazole-5-carboxamide]",0,8.1 ± 2.2,67.9 ± 2.3,94.6 ± 1.7,3.5 ± 1.3,35 ± 2.2,0,22.5 ± 3.2,56.3 ± 1.2,24.9 ± 1.6,–,–
"Cc1ccc(-c2noc(C(=O)Nc3ccc(Cl)cc3Cl)n2)cc1 [Compound F8, N-(2,4-dichlorophenyl)-3-(p-tolyl)-1,2,4-oxadiazole-5-carboxamide]",0,18.1 ± 1.2,47.6 ± 1.7,77.6 ± 1.2,4.9 ± 2.1,23.9 ± 3.3,0,6.1 ± 1.2,21.1 ± 1.7,22.7 ± 1.3,–,–
O=C(NCc1ccc(F)cc1F)c1nc(-c2ccc(Br)nc2)no1 [Compound F19],0,30.7 ± 1.1,64.1 ± 1.2,93.5 ± 2.6,7.9 ± 1.2,30.7 ± 1.1,0,23.5 ± 2.6,35.8 ± 0.8,42.2 ± 0.2,–,–
"O=C(Nc1ccc(Cl)cc1Cl)c1nc(-c2ccccc2)no1 [Compound F4, N-(2,4-dichlorophenyl)-3-phenyl-1,2,4-oxadiazole-5-carboxamide]",0,25.3 ± 1.7,71.4 ± 2.2,98.4 ± 2.3,5.9 ± 1.3,23.2 ± 1.4,0,11.7 ± 1.4,31.2 ± 0.7,20.9 ± 0.1,–,–
"O=C(NCc1ccc(F)cc1F)c1nc(-c2ccc(Cl)cc2)no1 [Compound F11, 3-(4-chlorophenyl)-N-(2,4-difluorobenzyl)-1,2,4-oxadiazole-5-carboxamide]",0,23.2 ± 2.1,10.6 ± 1.3,73.6 ± 1.7,24.8 ± 2.2,93.2 ± 2.1,0,19.8 ± 2.1,44.9 ± 0.9,44.2 ± 1.2,–,–
"O=C(NCCc1ncc(C(F)(F)F)cc1Cl)c1nc(-c2ccccc2)no1 [Compound F2, N-(2-(3-chloro-5-(trifluoromethyl)pyridin-2-yl)ethyl)-3-phenyl-1,2,4-oxadiazole-5-carboxamide]",0,5.5 ± 1.6,10.3 ± 1.4,46.7 ± 2.6,7.4 ± 3.2,42.6 ± 3.6,0,15.1 ± 1.6,48.6 ± 1.6,23.6 ± 0.6,–,–
O=C(Nc1ccc(Cl)cc1Cl)c1nc(-c2ncc(C(F)(F)F)cc2Cl)no1 [Compound F24],0,21.2 ± 1.5,9.6 ± 1.1,24.6 ± 1.4,0,18.5 ± 1.1,0,23.4 ± 1.6,1.8 ± 0.8,38.5 ± 0.5,–,–
O=C(NCCc1ncc(C(F)(F)F)cc1Cl)c1nc(-c2ncc(C(F)(F)F)cc2Cl)no1 [Compound F22],0,17.1 ± 2.2,45.7 ± 2.3,80.2 ± 1.5,0,18.3 ± 1.7,0,26.5 ± 2.1,37.6 ± 1.9,45.2 ± 0.9,–,–
"CCOP(=O)(SC(C)CC)N1CCSC1=O (stereo not drawn) [Fosthiazate, fosthiazate, reference compound]",38.8 ± 1.3,72.4 ± 1.9,100,100,91.4 ± 2.5,100,6.1 ± 3.1,38.4 ± 1.9,–,–,–,–
O=C(NCc1ccc(F)cc1F)c1nc(-c2ncc(C(F)(F)F)cc2Cl)no1 [Compound F23],0,20.3 ± 1.4,10.6 ± 1.2,27.6 ± 1.2,0,19.1 ± 2.2,0,21.5 ± 2.2,34.6 ± 0.1,41.5 ± 0.5,–,–
O=C(NCCc1ccccn1)c1nc(-c2ccc(Br)nc2)no1 [Compound F17],0,14.1 ± 1.9,54.2 ± 3.1,89.7 ± 1.5,0,33.5 ± 1.4,0,20.2 ± 1.2,10.1 ± 1.2,27.6 ± 1.4,–,–
"c1ccc(-c2noc(-c3cccs3)n2)cc1 [Tioxazafen, tioxazafen, reference compound]",0,13.5 ± 1.2,90.4 ± 0.7,100,12.6 ± 3.2,23.9 ± 3.3,8.8 ± 2.4,61.4 ± 1.7,–,–,–,–
"O=C(NCCc1ccccn1)c1nc(-c2cccs2)no1 [Compound F13, N -(2-(pyridin-2-yl)ethyl)-3-(thiophen-2-yl)-1,2,4-oxadiazole-5-carboxamide]",0,9.1 ± 1.5,70.4 ± 2.6,100,0,11.6 ± 1.1,0,21.7 ± 2.4,41.1 ± 0.1,27.3 ± 0.4,–,–
"Cc1ccc(-c2noc(C(=O)NCc3ccc(F)cc3F)n2)cc1 [Compound F7, N-(2,4-difluorobenzyl)-3-(p-tolyl)-1,2,4-oxadiazole-5-carboxamide]",0,28.1 ± 2.4,68.2 ± 2.3,91.9 ± 2.5,5.3 ± 1.1,24.9 ± 3.2,0,12.2 ± 2.1,56.4 ± 0.1,46.4 ± 0.8,–,–
O=C(NCCc1ccccn1)c1nc(-c2ncc(C(F)(F)F)cc2Cl)no1 [Compound F21],0,7.1 ± 1.9,32.5 ± 2,76.8 ± 0.9,0,23.5 ± 2.4,0,13 ± 0.5,35.1 ± 0.1,38.8 ± 0.7,–,–
"Cc1ccc(-c2noc(C(=O)NCCc3ncc(C(F)(F)F)cc3Cl)n2)cc1 [Compound F6, N-(2-(3-chloro-5-(trifluoromethyl)pyridin-2-yl)ethyl)-3-(p-tolyl)-1,2,4-oxadiazole-5-carboxamide]",0,11.6 ± 2.1,100,100,7.9 ± 2.2,44.6 ± 3.8,0,29.4 ± 2.3,56 ± 1.4,22.9 ± 1.1,100.0,100.0

# Source: article PMC8836147, “Design, Synthesis and Antifungal/Nematicidal Activity of Novel 1,2,4-Oxadiazole Derivatives Containing Amide Fragments” (International Journal of Molecular Sciences, 2022)
